Laboratory results: PubChem BioAssay AID330 (DTP/NCI, 2004)
Where “and” joins values, the source holds several entries; their conditions need not be identical. Equal values may be shown once. Toxic doses and inconclusive results are not listed.

System: P388 leukemia ip, CD2F1 mice, survival T/C
Experiment: NCI In Vivo Anticancer Drug Screen. Data for tumor model P388 Leukemia (intraperitoneal) in CD2F1 (CDF1) mice
Conditions: endpoint: median survival time, higher = longer survival
Procedure, shortened: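 Mice carrying the transplanted tumor received test compound or vehicle. Survival was recorded in each group, and the value is the treated-group measurement divided by that of the vehicle-treated control group.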

[1] = dose: 100.0 mg/kg/injection, schedule: Q01DX009 (ip), vehicle: saline
[2] = dose: 50.0 mg/kg/injection, schedule: Q01DX009 (ip), vehicle: Klucel (hydroxypropylcellulose) (HPC)
[3] = dose: 100.0 mg/kg/injection, schedule: Q01DX009 (ip), vehicle: Klucel (hydroxypropylcellulose) (HPC)
[4] = dose: 60.0 mg/kg/injection, schedule: Q01DX005 (ip), vehicle: saline with Tween-80
[5] = dose: 120.0 mg/kg/injection, schedule: Q01DX005 (ip), vehicle: saline with Tween-80
[6] = dose: 240.0 mg/kg/injection, schedule: Q01DX005 (ip), vehicle: saline with Tween-80
[7] = dose: 25.0 mg/kg/injection, schedule: Q01DX009 (ip), vehicle: saline

In the case of `CN(C)CCC(=O)c1ccc(Cl)cc1`, the T/C (dose: 50.0 mg/kg/injection, schedule: Q01DX009 (ip), vehicle: saline) is reported as 106 % of control and the T/C [1] is reported as 105 % of control.
`CCCC(C)Br` (stereo not drawn) was tested, and the T/C [1] was 109 % of control, the T/C (dose: 200.0 mg/kg/injection, schedule: Q01DX009 (ip), vehicle: saline) was 114 % of control and the T/C (dose: 400.0 mg/kg/injection, schedule: Q01DX009 (ip), vehicle: saline) was 115 % of control.
For `CC1(Cc2ccccc2)NC(=O)NC1=O` (stereo not drawn), the T/C [2] was 100 % of control, the T/C [3] was 104 % of control and the T/C (dose: 200.0 mg/kg/injection, schedule: Q01DX009 (ip), vehicle: Klucel (hydroxypropylcellulose) (HPC)) was 105 % of control.
With `C=C(C)CCCCOCOCCOC` the T/C [4] was 99 % of control, the T/C [5] was 99 % of control and the T/C [6] was 97 % of control.
In the case of `CN(C)C1CCC(NC2=CC(=O)C(NC3CCC(N(C)C)CC3)=CC2=O)CC1` (stereo not drawn), the T/C (dose: 1.56 mg/kg/injection, schedule: Q01DX005 (ip), vehicle: distilled water + alcohol) is reported as 95 % of control, the T/C (dose: 3.12 mg/kg/injection, schedule: Q01DX005 (ip), vehicle: distilled water + alcohol) is reported as 99 % of control and the T/C (dose: 6.25 mg/kg/injection, schedule: Q01DX005 (ip), vehicle: distilled water + alcohol) is reported as 100 % of control and 96 % of control.
`COc1cc(-c2coc3c4c(ccc3c2=O)OC(C)(C)C=C4)c(OC)c2c1OCO2` was tested, and the T/C (dose: 10.0 mg/kg/injection, schedule: Q01DX009 (ip), vehicle: other) was 111 % of control, the T/C (dose: 20.0 mg/kg/injection, schedule: Q01DX009 (ip), vehicle: other) was 102 % of control and the T/C (dose: 40.0 mg/kg/injection, schedule: Q01DX009 (ip), vehicle: other) was 123 % of control.
`COc1ccc(Cc2c3cc(OC)c(OC)cc3cc[n+]2CC(=O)c2ccc(Cl)cc2)cc1OC` was tested, and the T/C (dose: 50.0 mg/kg/injection, schedule: Q01DX005 (ip), vehicle: Klucel (hydroxypropylcellulose) (HPC)) was 105 % of control and the T/C (dose: 100.0 mg/kg/injection, schedule: Q01DX005 (ip), vehicle: Klucel (hydroxypropylcellulose) (HPC)) was 111 % of control.
For `[O-][n+]1ccccc1C1CO1` (stereo not drawn), the T/C (dose: 6.25 mg/kg/injection, schedule: Q01DX009 (ip), vehicle: saline) was 105 % of control, the T/C (dose: 12.5 mg/kg/injection, schedule: Q01DX009 (ip), vehicle: saline) was 103 % of control and the T/C [7] was 102 % of control. The T/C [1] was 88 % of control.
`Cc1cccnc1I` was tested, and the T/C [4] was 98 % of control, the T/C [5] was 99 % of control and the T/C [6] was 101 % of control.
`COC1=CC(=O)/C(=C(O)/C=C/c2ccccc2)C(=O)C1(C)C` was tested, and the T/C [4] was 108 % of control, the T/C [5] was 115 % of control and the T/C [6] was 123 % of control.
With `COc1cc(C=NC2CCCCC2)cc(OC)c1OC` the T/C (dose: 100.0 mg/kg/injection, schedule: Q01DX001 (ip), vehicle: saline) was 104 % of control, the T/C (dose: 200.0 mg/kg/injection, schedule: Q01DX001 (ip), vehicle: saline) was 101 % of control and the T/C (dose: 400.0 mg/kg/injection, schedule: Q01DX001 (ip), vehicle: saline) was 99 % of control.
With `O=C1c2ccccc2NC1c1ccc2ccccc2n1` (stereo not drawn) the T/C (dose: 25.0 mg/kg/injection, schedule: Q01DX009 (ip), vehicle: Klucel (hydroxypropylcellulose) (HPC)) was 94 % of control, the T/C [2] was 93 % of control and the T/C [3] was 86 % of control.
With `Cc1ccc(NCCCN2CCN(CCCNc3ccc(C)c4sc5ccccc5c(=O)c34)CC2)c2c(=O)c3ccccc3sc12` the T/C (dose: 0.5 mg/kg/injection, schedule: Q01DX005 (ip), vehicle: saline with Tween-80) was 97 % of control, the T/C (dose: 1.0 mg/kg/injection, schedule: Q01DX005 (ip), vehicle: saline with Tween-80) was 88 % of control and the T/C (dose: 2.0 mg/kg/injection, schedule: Q01DX005 (ip), vehicle: saline with Tween-80) was 97 % of control. The T/C (dose: 4.0 mg/kg/injection, schedule: Q01DX005 (ip), vehicle: saline with Tween-80) was 90 % of control.
For `Cc1ccc(O)c(O)c1`, the T/C [7] was 101 % of control.
`CSC(=S)n1nc(-c2ccccc2)c(N=Nc2cccc(C)c2C)c1-c1ccccc1` was tested, and the T/C (dose: 100.0 mg/kg/injection, schedule: Q04DX002 (ip), vehicle: saline with Tween-80) was 90 % of control, the T/C (dose: 200.0 mg/kg/injection, schedule: Q04DX002 (ip), vehicle: saline with Tween-80) was 89 % of control and the T/C (dose: 400.0 mg/kg/injection, schedule: Q04DX002 (ip), vehicle: saline with Tween-80) was 102 % of control.
